Laboratory results published in patent US9586951B2 (FUJIFILM Corporation, priority 2013, dated 2017).

Assays:
[1] = test system: human non-small cell lung cancer cell line NCI-H460; experiment: Cell proliferation inhibition test by sensitivity-enhancing to ionizing radiation (Cell Titer Glo); type: cell-based; conditions: concentration in which SER became 2, NCI-H460 cells, ionizing radiation 2 Gy, cultured 120 hour
How it was run: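 Radiosensitisation measured as SER, a ratio of Cell Titer Glo luminescence in irradiated vs unirradiated plates relative to DMSO; SER2, the concentration yielding SER 2, came from sigmoidal regression. Compound (0.1% DMSO) was given 24 h post-seeding, 2 Gy applied 30 min later, then 120 hour culture at 37° C.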

ATM = target: T1, ATM (Homo sapiens, UniProt Q13315); experiment: ATM inhibition test (phosphorylation of Chk2 generated by ionizing radiation, AlphaScreen SureFire); type: cell-based; conditions: phosphorylated Chk2 in NCI-H460 cells, ionizing radiation 8Gy, 1 hour after test compound treatment; read-out: ATM inhibitory activity
T1 construct: detecting phosphorylation of Chk2 in a human non-small cell lung cancer cell line NCI-H460 (ATCC company); host or cells: NCI-H460 human non-small cell lung cancer cells
T1 sequence (Q13315 whole entry): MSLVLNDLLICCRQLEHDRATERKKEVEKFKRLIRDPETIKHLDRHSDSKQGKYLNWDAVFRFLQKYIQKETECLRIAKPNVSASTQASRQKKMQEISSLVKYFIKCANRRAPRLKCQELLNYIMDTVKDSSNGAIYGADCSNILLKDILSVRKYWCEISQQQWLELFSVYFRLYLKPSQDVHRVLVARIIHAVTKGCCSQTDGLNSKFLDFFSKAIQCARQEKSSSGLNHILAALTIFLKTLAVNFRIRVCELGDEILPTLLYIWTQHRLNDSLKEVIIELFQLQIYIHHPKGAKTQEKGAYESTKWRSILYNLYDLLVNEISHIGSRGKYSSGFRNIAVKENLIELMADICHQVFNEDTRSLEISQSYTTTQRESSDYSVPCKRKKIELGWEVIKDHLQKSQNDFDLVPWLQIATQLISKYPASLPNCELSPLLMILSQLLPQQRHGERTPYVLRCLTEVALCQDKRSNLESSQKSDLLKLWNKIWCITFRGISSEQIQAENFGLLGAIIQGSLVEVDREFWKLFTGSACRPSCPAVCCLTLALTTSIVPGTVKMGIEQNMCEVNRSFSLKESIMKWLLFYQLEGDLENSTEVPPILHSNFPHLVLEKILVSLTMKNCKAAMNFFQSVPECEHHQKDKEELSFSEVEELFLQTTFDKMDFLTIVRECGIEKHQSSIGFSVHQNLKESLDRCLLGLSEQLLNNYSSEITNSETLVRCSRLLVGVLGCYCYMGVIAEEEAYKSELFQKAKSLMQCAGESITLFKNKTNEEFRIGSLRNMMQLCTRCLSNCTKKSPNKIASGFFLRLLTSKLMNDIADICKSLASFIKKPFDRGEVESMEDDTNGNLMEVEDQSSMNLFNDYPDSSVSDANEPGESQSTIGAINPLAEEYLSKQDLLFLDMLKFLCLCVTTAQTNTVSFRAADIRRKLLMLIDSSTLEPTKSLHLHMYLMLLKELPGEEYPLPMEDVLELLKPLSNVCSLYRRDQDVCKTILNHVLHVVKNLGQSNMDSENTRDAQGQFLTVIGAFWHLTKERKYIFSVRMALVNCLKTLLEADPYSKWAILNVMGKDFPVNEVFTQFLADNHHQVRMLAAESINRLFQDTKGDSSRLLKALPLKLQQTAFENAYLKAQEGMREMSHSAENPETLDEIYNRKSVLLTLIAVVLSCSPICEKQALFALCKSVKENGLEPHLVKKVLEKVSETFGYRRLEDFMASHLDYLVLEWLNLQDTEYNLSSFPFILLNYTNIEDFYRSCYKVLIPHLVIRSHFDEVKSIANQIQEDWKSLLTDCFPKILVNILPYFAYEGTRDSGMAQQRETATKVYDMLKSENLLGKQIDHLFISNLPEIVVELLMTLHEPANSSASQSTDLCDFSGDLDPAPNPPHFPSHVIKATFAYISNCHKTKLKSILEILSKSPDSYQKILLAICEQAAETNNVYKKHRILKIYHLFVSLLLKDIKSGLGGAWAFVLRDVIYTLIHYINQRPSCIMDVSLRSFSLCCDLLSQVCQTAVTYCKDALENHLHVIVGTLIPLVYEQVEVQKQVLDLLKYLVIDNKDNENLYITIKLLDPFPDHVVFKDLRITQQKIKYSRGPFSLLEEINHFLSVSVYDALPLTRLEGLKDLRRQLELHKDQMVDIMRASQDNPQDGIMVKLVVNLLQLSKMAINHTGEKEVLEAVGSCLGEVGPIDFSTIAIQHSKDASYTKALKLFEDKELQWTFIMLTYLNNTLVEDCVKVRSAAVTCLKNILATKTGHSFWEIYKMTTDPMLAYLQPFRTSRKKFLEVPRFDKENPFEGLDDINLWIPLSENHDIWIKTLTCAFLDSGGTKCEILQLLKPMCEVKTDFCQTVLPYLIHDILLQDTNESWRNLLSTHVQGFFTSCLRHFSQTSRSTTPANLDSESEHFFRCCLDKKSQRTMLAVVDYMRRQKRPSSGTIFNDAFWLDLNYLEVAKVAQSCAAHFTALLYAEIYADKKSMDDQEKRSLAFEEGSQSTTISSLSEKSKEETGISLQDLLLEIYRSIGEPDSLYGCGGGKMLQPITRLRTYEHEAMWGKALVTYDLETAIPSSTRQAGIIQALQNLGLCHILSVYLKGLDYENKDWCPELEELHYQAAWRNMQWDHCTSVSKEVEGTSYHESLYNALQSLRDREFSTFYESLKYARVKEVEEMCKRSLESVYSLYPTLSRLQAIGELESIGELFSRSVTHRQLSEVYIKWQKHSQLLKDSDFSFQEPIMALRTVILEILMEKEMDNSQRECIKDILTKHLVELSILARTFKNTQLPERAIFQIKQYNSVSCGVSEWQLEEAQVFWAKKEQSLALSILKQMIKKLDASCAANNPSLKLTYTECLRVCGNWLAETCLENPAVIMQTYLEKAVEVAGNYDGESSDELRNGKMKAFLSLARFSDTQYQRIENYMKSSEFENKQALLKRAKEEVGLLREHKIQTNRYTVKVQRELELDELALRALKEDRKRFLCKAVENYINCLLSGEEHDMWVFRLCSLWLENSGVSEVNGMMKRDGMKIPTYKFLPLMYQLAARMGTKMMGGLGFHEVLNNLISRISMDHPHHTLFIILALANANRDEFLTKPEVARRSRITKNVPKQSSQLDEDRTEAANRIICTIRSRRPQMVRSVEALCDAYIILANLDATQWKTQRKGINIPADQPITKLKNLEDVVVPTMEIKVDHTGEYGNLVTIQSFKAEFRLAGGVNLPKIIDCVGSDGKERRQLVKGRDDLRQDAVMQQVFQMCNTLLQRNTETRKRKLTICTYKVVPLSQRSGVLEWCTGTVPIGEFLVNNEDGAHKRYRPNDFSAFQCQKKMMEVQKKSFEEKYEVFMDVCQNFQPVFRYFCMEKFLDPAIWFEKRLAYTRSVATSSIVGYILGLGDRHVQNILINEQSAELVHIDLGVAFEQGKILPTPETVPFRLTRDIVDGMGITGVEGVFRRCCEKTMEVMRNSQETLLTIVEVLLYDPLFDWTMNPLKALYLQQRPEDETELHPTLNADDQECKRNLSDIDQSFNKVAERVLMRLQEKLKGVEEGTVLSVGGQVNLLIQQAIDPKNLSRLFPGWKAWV
How it was run: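 In NCI-H460 cells, radiation-triggered Chk2 phosphorylation (8Gy, 1 h) is detected by AlphaScreen SureFire following 1 h compound exposure.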

Compound	SER2 (concentration at which the radiation sensitivity-enhancement ratio reaches 2) ([1]; Homo sapiens, NCI-H460, 120 h) [nM]	IC50 (ATM) [µM]	SER2 (concentration at which the radiation sensitivity-enhancement ratio reaches 2) [1] [nM]
CN(C)c1cncc(CNc2ccc3c(c2)Cc2cccc(-c4cc(N5CCOCC5)cc(=O)[nH]4)c2O3)c1 [Example 2-21-7, 6-(7-(((5-(Dimethylamino)pyridin-3-yl)methyl)amino)-9H-xanthen-4-yl)-4-morpholino pyridin-2(1H)-one]	500 to 2000	< 0.1	
COc1ccnc(CNc2ccc3c(c2)Cc2ccnc(-c4cc(N5CCOCC5)cc(=O)[nH]4)c2O3)c1 [Example 2-41-4, 6-(7-(((4-Methoxypyridin-2-yl)methyl)amino)-5H-chromeno[2,3-c]pyridin-1-yl)-4-morpholino pyridin-2 (1H)-one]	100 to 500	< 0.1	
COC(=O)C(Nc1ccc2c(c1)Sc1cccc(-c3cc(N4CCOCC4)cc(=O)[nH]3)c1S2)c1cccc(C)n1 (stereo not shown) [Example 1-12-107, Methyl 2-(6-methylpyridin 2-yl)-2-((6-(4-morpholino-6-oxo-1,6-dihydropyridin-2 yl)thianthren-2-yl)amino) acetate]	100 to 500	< 0.1	
6-(7-(((5-Methyl pyridin-2- yl)(1-methyl pyrrolidin-3-yl) methyl)amino)thianthren-1- yl)-4-morpholino pyridin-2 (1H)-one [Example 1-22-9]		< 0.1	< 100
O=c1cc(N2CCOCC2)cc(-c2cccc3c2Oc2ccc(NCc4cncc(Cl)c4)cc2C3)[nH]1 [Example 2-2-12, 6-(7-(((5-Chloropyridin-3-yl)methyl)amino)-9H-xanthen-4-yl)-4-morpholino pyridin-2 (1H)-one]	100 to 500	< 0.1	
Cc1ccc(C(Nc2ccc3c(c2)Sc2cccc(-c4cc(N5CCOCC5)cc(=O)[nH]4)c2S3)C2CCN(C)CC2)nc1 (single isomer, unassigned) [Example 1-51-2]		< 0.1	100 to 500
C[C@@H]1CN(CCNc2ccc3c(c2)Sc2cccc(-c4cc(N5CCOCC5)cc(=O)[nH]4)c2S3)C[C@H](C)O1 [Example 1-10-14, 6-(7-((2-((2S,6R)-2,6- Dimethylmorpholino)ethyl)amino)thianthren-1-yl)-4-morpholino pyridin-2(1H)-one]	100 to 500	< 0.1	
O=c1cc(N2CCOCC2)cc(-c2cccc3c2Oc2ccc(NCc4cncc(-n5cccn5)c4)cc2S3)[nH]1 [Example 4-4-9, 6-(8-(((5-(1H-Pyrazol-1-yl)pyridin-3-yl)methyl)amino)phenoxathiin-4-yl)-4-morpholino pyridin-2(1H)-one]	100 to 500	< 0.1	
Cn1cc(-c2ccnc(CNc3ccc4c(c3)Cc3cccc(-c5cc(N6CCOCC6)cc(=O)[nH]5)c3O4)c2)cn1 [Example 2-2-74, 6-(7-(((4-(1-Methyl-1H-pyrazol-4-yl)pyridin-2-yl)methyl)amino)-9H-xanthen-4-yl)-4-morpholino pyridin-2(1H)-one]	100 to 500	< 0.1	
O=c1cc(N2CCOCC2)cc(-c2cccc3c2Oc2ccc(NCc4ccnc(F)c4)cc2C3)[nH]1 [Example 2-21-2, 6-(7-(((2-Fluoropyridin-4-yl)methyl)amino)-9H-xanthen-4-yl)-4-morpholinopyridin-2 (1H)-one]	100 to 500	< 0.1	
COCC(CN1CC2CCC(C1)O2)Nc1ccc2c(c1)Sc1cccc(-c3cc(N4CCOCC4)cc(=O)[nH]3)c1S2 [Example 1-46-10, 6-(7-(((2S)-1-(8-Oxa-3-azabicyclo[3.2. l]octan-3-yl)-3-methoxypropan-2-yl)amino)thianthren-1-yl)-4-morpholino pyridin-2(1H)-one]	100 to 500	< 0.1	
